Test results from the RepoRT retention time repository (doi:10.1021/acs.analchem.1c00972).

Columns and labels:
[1] = RP, Waters ACQUITY UPLC BEH C18, 100 × 1 mm, 1.7 µm, 50 °C, 0.3 mL/min, estimated dead time 0.17 min; A: water + 10 mM ammonium bicarbonate; B: 10% water + 90% methanol + 10 mM ammonium bicarbonate; gradient (min/%B) 0/0 15/100 21/100 22/0 30/0; details: stereoisomer not certain
[2] = RP, Waters ACQUITY UPLC BEH C18, 100 × 1 mm, 1.7 µm, 50 °C, 0.3 mL/min, estimated dead time 0.17 min; A: water + 0.1% formic acid + 20 mM ammonium formate; B: methanol + 0.1% formic acid + 20 mM ammonium formate; gradient (min/%B) 0/0 15/100 21/100 22/0 30/0; details: stereoisomer not certain

LC retention time [1] | LC retention time [2] | Structure (SMILES)
16.6 min | 14.1 min | CCC1OC(=O)C(C)C(OC2CC(C)(OC)C(O)C(C)O2)C(C)C(OC2OC(C)CC(N(C)C)C2O)C(C)(OC)CC(C)C(=O)C(C)C(O)C1(C)O (stereo not given) [Clarithromycin]
15.1 min | 13.2 min | CC(C)(C)C(=O)C(Oc1ccc(Cl)cc1)n1ccnc1 (stereo not given) [Climbazole]
14.4 min | 14.1 min | CC1CC2C3CCC4=CC(=O)C=CC4(C)C3(F)C(O)CC2(C)C1(O)C(=O)CCl (stereo not given) [Clobetasol]
16.5 min | 15.4 min | COC(=O)C(c1ccccc1Cl)N1CCc2sccc2C1 (stereo not given) [Clopidogrel]
17.3 min | 16.9 min | CCCCCC(C)OC(=O)COc1ccc(Cl)c2cccnc12 (stereo not given) [Cloquintocet-mexyl]
16.7 min | 13.9 min | Clc1ccccc1C(c1ccccc1)(c1ccccc1)n1ccnc1 [Clotrimazole]
15.7 min | 11.7 min | CN1CCN(C2=Nc3cc(Cl)ccc3Nc3ccccc32)CC1 [Clozapine]
14.9 min | 14.6 min | CC(=O)C1(O)CCC2C3C=C(Cl)C4=CC(=O)C5CC5C4(C)C3CCC21C (stereo not given) [Cyproterone]
12.4 min | 10.8 min | CNCCCC(C#N)(c1ccc(OC)c(OC)c1)C(C)C (stereo not given) [D617]
3.05 min | 7.76 min | O=C1C(O)Oc2ccccc2N1O (stereo not given) [DIBOA]
4.91 min | 8.5 min | COc1ccc2c(c1)OC(O)C(=O)N2O (stereo not given) [DIMBOA]
10.7 min | 10.7 min | CN(C)S(=O)(=O)Nc1ccccc1 [DMSA]
12.1 min | 12 min | Cc1ccc(NS(=O)(=O)N(C)C)cc1 [DMST]
13.4 min | 13.1 min | CC(C)CN(CC(O)C(Cc1ccccc1)NC(=O)OC1COC2OCCC12)S(=O)(=O)c1ccc(N)cc1 (stereo not given) [Darunavir]
14.7 min | 11.9 min | Clc1ccc2c(c1)CCc1cccnc1C2=C1CCNCC1 [Desloratadine]
13.1 min | 11.7 min | CNc1nc(NC(C)C)nc(SC)n1 [Desmetryn]
13.9 min | 13.6 min | CC1(C)OC2CC3C4CCC5=CC(=O)C=CC5(C)C4C(O)CC3(C)C2(C(=O)CO)O1 (stereo not given) [Desonide]
13.5 min | 13.2 min | CC1CC2C3CCC4=CC(=O)C=CC4(C)C3(F)C(O)CC2(C)C1(O)C(=O)CO (stereo not given) [Dexamethasone]
19.4 min | 18.9 min | CCCCCCCOC(=O)c1ccccc1C(=O)OCCCCCCC [Di-n-heptylphthalate]
3.99 min | 4.47 min | CC(=O)Nc1c(I)c(NC(C)=O)c(I)c(C(=O)O)c1I [Diatrizoate]
16.7 min | 16.3 min | O=C(OCc1ccccc1)c1ccccc1C(=O)OCc1ccccc1 [Dibenzylphthalate]
18.5 min | 18.1 min | CCCCOC(=O)CCCCCCCCC(=O)OCCCC [Dibutyl sebacate]
10.9 min | 10.8 min | CCCCOCCOCCO [Diethylene glycol monobutyl ether]
15.5 min | 11.8 min | COc1ccc(C2Sc3ccccc3N(CCN(C)C)C(=O)C2OC(C)=O)cc1 (stereo not given) [Diltiazem]
10.6 min | 11.4 min | COCC(C)N(C(=O)CS(=O)CC(=O)O)c1c(C)csc1C (stereo not given) [Dimethenamid M31]
20.7 min | 11.1 min | COC(=O)c1ccc(C(=O)OC)cc1 [Dimethyl terephthalate]

The next lines start with the molecule.

Structure (SMILES) | LC retention time [1] | LC retention time [2]
Clc1ccccc1-c1nnc(-c2ccccc2Cl)nn1 [Clofentezine (Apolo)] | 16.3 min | 15.9 min
Clc1cccc(Cl)c1NC1=NCCN1 [Clonidine] | 10.2 min | 7.02 min
O=C(O)c1nc(Cl)ccc1Cl [Clopyralid] | 3.37 min | 6.09 min
COc1ccc2c3c1OC1C(O)C=CC4C(C2)N(C)CCC341 (stereo not given) [Codein] | 12.1 min | 6.77 min
COc1cc2c(c(OC)c1OC)-c1ccc(OC)c(=O)cc1C(NC(C)=O)CC2 (stereo not given) [Colchicine] | 11.6 min | 11.4 min
O=c1ccc2ccccc2o1 [Coumarin] | 9.93 min | 9.79 min
CC(=O)OC(C)(C)C=CC(=O)C(C)(O)C1C(O)CC2(C)C3CC=C4C(C=C(O)C(=O)C4(C)C)C3(C)C(=O)CC12C (stereo not given) [Cucurbitacin E] | 14.7 min | 14.4 min
Cc1ccc(-c2c(Cl)nc(C#N)n2S(=O)(=O)N(C)C)cc1 [Cyazofamid] | 15.3 min | 15 min
O=C1CCCCCCCCCCC1 [Cyclododecanone] | 16.5 min | 16.1 min
O=C(c1ccccc1)C1CCCCC1 [Cyclohexylphenylketone] | 15.9 min | 15.5 min
O=C(Cc1ccccc1)NC(=NOCC1CC1)c1c(C(F)(F)F)ccc(F)c1F [Cyflufenamid] | 16.3 min | 16 min
CC(C1CC1)C(O)(Cn1cncn1)c1ccc(Cl)cc1 (stereo not given) [Cyproconazole] | 15 min | 14.5 min
O=c1cccc2n1CC1CNCC2C1 (stereo not given) [Cytisin] | 7.53 min | 2.31 min
CCOC(=O)Nc1cccc(OC(=O)Nc2ccccc2)c1 [Desmedipham] | 13.6 min | 13.5 min
CC(C)CCCCCCCOC(=O)c1ccccc1C(=O)OCCCCCCCC(C)C [Di-iso-decylphthalate] | 21.3 min | 20 min
CC(C)CCCCCCOC(=O)c1ccccc1C(=O)OCCCCCCC(C)C [Di-iso-nonylphthalate] | 20.5 min | 19.7 min
C=CCOC(=O)c1ccccc1C(=O)OCC=C [Diallylphthalate] | 14.5 min | 14.2 min
CCOP(=S)(OCC)Oc1cc(C)nc(C(C)C)n1 [Diazinon] | 16 min | 15.7 min
CC(C)(C)C(O)C(Cc1ccc(Cl)cc1Cl)n1cncn1 (stereo not given) [Dichlobutrazol] | 15.8 min | 15.4 min
O=C(OC1CCCCC1)c1ccccc1C(=O)OC1CCCCC1 [Dicyclohexylphthalat] | 12.5 min | 14.2 min
CCCCCCCCCCOC(=O)c1ccccc1C(=O)OCCCCCCCCCC [Didecylphthalat] | 21.4 min | 20.1 min
O=C(Nc1ccc(F)cc1F)c1cccnc1Oc1cccc(C(F)(F)F)c1 [Diflufenican] | 16.7 min | 16.3 min
CC(C)OC(=O)c1ccccc1C(=O)OC(C)C [Diisopropylphthalate] | 15.4 min | 15.1 min
COc1ccc(C(=CC(=O)N2CCOCC2)c2ccc(Cl)cc2)cc1OC [Dimethomorph] | 14.7 min | 14.4 min
